Measurements reported in US11584747B2, “Substituted pyridopyrimidinonyl compounds useful as T cell activators” (BRISTOL-MYERS SQUIBB COMPANY, priority 2019, dated 2023).
Like-named read-outs stand apart in the source and are kept apart here.

Tests used:
human DGKα [1] = target: T1, human DGKα (Homo sapiens (Human), UniProt P23743); assay: DGKα ADPGLO assay (detergent/lipid micelle substrate); type: biochemical; settings: truncated DGK alpha; read-out: DGK alpha ADPGLO (Truncated) IC50
Procedure: DGK Alpha ADPGLO (Truncated) IC50 (uM)
The detergent/lipid micelle was prepared by combining 15 g phosphatidylserine (Avanti 840035P) and 1 g diacylglycerol (8008110) and dissolving into 150 mL chloroform in a 2 L round bottom flask. Chloroform was removed under high vacuum by rotary evaporation. […] The lipid/detergent solution was split into 5 mL aliquots and stored at −80° C.

human DGKζ = human DGKζ (Homo sapiens (Human), UniProt Q13574); assay: DGKζ LIPGLO assay (extruded liposome substrate, ADP-Glo luminescence); type: biochemical; settings: liposome assay; read-out: DGK zeta LIPGLO IC50
whole blood (pERK) = assay: pERK Whole Blood assay (Table A; no whole-blood pERK method described); type: cell-based; settings: normalized
[2] = system: human venous whole blood (IFN-γ); assay: Human whole blood IFN-γ assay; type: cell-based; settings: whole blood, normalized to 3 μM reference compound as 100% activation, read-out: IFN-γ Whole Blood Normalized EC50
Procedure: Human venous whole blood (22.5 μL per well), obtained from healthy donors, was pre-treated with compounds for one hour at 37° C. in a humidified 95% air/5% CO2 incubator. The blood was stimulated with 2.5 μL anti-human CD3 and anti-CD28 mAb at a final concentration of 1 μg/mL each for 24 hours at 37° C. IFN-γ in the supernatants was measured using AlphLISA kit (Cat #AL217).

human DGKα [3] = target: T1, human DGKα; assay: DGKα LIPGLO assay (extruded liposome substrate, ADP-Glo luminescence); type: biochemical; settings: liposome assay; read-out: DGK alpha LIPGLO IC50

T1 sequence (P23743 whole entry, looked up, the tested form may be a part): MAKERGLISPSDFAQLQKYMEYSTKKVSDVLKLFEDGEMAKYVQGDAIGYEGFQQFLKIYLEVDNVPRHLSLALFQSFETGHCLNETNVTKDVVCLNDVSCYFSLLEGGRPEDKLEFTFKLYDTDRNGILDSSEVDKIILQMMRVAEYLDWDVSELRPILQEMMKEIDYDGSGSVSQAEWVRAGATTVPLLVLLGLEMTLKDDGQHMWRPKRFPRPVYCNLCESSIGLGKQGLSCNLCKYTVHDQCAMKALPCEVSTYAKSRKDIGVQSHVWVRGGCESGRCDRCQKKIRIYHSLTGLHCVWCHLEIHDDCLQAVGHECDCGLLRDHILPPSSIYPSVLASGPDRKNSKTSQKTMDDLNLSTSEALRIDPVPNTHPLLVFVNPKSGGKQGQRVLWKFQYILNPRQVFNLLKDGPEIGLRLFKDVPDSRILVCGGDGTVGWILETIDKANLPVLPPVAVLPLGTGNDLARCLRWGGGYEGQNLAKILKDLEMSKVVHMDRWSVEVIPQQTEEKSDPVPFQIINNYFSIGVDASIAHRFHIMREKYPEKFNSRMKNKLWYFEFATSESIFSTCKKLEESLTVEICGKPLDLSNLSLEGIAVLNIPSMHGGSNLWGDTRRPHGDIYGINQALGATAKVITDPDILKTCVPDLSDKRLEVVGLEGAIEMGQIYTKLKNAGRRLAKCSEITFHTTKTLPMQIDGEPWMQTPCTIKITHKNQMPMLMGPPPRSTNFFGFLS
Chain of human DGKζ (Q13574 other isoform, or with tags, fused parts or gaps): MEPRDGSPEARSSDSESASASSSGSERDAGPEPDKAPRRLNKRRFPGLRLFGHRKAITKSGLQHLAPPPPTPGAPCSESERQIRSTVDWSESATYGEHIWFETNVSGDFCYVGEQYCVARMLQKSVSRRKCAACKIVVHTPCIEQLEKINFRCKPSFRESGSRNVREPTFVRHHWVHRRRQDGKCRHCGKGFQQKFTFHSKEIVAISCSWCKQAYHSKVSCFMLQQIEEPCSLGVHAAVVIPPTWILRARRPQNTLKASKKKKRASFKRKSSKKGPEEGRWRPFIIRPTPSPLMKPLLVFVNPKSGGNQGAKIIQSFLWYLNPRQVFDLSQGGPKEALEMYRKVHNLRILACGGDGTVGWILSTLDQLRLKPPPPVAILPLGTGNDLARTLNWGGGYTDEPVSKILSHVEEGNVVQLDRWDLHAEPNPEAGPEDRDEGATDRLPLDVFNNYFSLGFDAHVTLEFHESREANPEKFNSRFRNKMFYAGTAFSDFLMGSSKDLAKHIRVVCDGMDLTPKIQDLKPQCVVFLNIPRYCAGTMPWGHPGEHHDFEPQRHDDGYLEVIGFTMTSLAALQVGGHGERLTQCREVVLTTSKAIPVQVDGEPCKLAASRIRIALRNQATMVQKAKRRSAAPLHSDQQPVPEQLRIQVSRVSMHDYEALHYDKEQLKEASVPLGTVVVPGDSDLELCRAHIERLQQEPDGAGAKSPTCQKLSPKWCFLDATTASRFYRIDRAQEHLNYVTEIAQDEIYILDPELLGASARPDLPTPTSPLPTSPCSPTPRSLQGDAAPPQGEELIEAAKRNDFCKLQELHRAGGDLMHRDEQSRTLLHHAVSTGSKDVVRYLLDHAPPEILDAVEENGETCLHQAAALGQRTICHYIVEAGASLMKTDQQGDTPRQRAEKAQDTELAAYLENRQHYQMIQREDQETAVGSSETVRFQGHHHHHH

Row | SMILES | IC50 (human DGKα [1]) | IC50 (human DGKζ) | IC50 (human DGKα [3]) | IC50 (whole blood (pERK)) | EC50 [2] | EC50 ([2]; Homo sapiens)
1 | CC[C@H]1CN(C(c2ccc(OC(F)(F)F)cc2)c2cc(C3CC3)on2)[C@H](CC)CN1c1nc(=O)n(C)c2ccc(C#N)nc12 (single isomer, unassigned) [Example 43] | 82 nM | 130 nM | 22 nM | 340 nM | 120 nM | –
2 | CC[C@H]1CN(C(c2ccc(F)cc2)c2nc(C3CC3)nn2C)[C@H](CC)CN1c1nc(=O)n(C)c2ccc(C#N)nc12 (single isomer, unassigned) [Example 295] | 100 nM | 820 nM | 7230 nM | 100 nM | 580 nM | –
3 | CCC(c1ccc(OC(F)(F)F)cc1)N1C[C@H](CC)N(c2nc(=O)n(C)c3ccc(C#N)nc23)C[C@H]1CC (single isomer, unassigned) [Example 36] | 190 nM | 75 nM | 16 nM | 250 nM | 82 nM | –
4 | COC[C@@H]1CN(c2nc(=O)n(C)c3ccc(C#N)nc23)[C@@H](C)CN1C(C)c1ccc(OC(F)(F)F)cc1 (single isomer, unassigned) [Example 176] | – | 110 nM | 180 nM | 210 nM | 190 nM | –
5 | CC(c1ccc(F)c(F)c1)N1C[C@H](C)N(c2nc(=O)n(C)c3ccc(C#N)nc23)C[C@H]1C (single isomer, unassigned) [Example 149] | – | 1180 nM | 4560 nM | 1950 nM | 8060 nM | –
6 | CC[C@H]1CN(C(C)c2ccc(C3CC3)cc2)[C@H](CC)CN1c1nc(=O)n(C)c2ccc(C#N)nc12 (single isomer, unassigned) [Example 29] | – | 10 nM | 40 nM | 100 nM | 27 nM | –
7 | CC(c1ccc(Cl)cc1F)N1C[C@H](C)N(c2nc(=O)n(C)c3ccc(C#N)nc23)C[C@H]1C (single isomer, unassigned) [Example 146] | – | 44 nM | 47 nM | 250 nM | – | 710 nM
8 | CC[C@H]1CN(C(c2ccc(OC(F)(F)F)cc2)c2cc(C3CC3)on2)[C@H](CC)CN1c1nc(=O)n(C)c2ccc(C#N)nc12 (single isomer, unassigned) [Example 42] | 7 nM | 110 nM | 78 nM | 350 nM | – | 81 nM
9 | CC[C@H]1CN(C(C)c2ccc3c(c2)OC(F)(F)O3)[C@H](CC)CN1c1nc(=O)n(C)c2ccc(C#N)nc12 (single isomer, unassigned) [Example 14] | – | 36 nM | 350 nM | 900 nM | 94 nM | –
10 | CC[C@H]1CN(C(C)c2ccc(OC(F)(F)F)cc2F)[C@H](CC)CN1c1nc(=O)n(C)c2ccc(C#N)nc12 (single isomer, unassigned) [Example 38] | – | 120 nM | 66 nM | 220 nM | 72 nM | –
11 | CC(c1ccc(F)cc1F)N1C[C@H](C)N(c2nc(=O)n(C)c3ccc(C#N)nc23)C[C@H]1C (single isomer, unassigned) [Example 145] | – | 1890 nM | 1130 nM | 750 nM | – | 20000 nM
12 | CC(c1ccc(OC(F)(F)F)c(F)c1)N1C[C@H](C)N(c2nc(=O)n(C)c3ccc(C#N)nc23)C[C@H]1C (single isomer, unassigned) [Example 160] | – | 250 nM | 110 nM | 860 nM | 240 nM | –
13 | CC[C@H]1CN(C(C)c2ccc(OCC3CC3)cc2)[C@H](CC)CN1c1nc(=O)n(C)c2ccc(C#N)nc12 (single isomer, unassigned) [Example 23] | – | 29 nM | 58 nM | 86 nM | 11 nM | –
14 | CC[C@H]1CN(C(C)c2ccc(C3CC3)cc2F)[C@H](CC)CN1c1nc(=O)n(C)c2ccc(C#N)nc12 (single isomer, unassigned) [Example 40] | – | 41 nM | 320 nM | 10 nM | 21 nM | –
15 | C[C@@H]1CN(c2nc(=O)n(C)c3ccc(C#N)nc23)[C@@H](C)CN1C(c1ccc(F)cc1)c1nc(C(C)(C)C)no1 (single isomer, unassigned) [Example 109] | – | 190 nM | 34 nM | 48 nM | 110 nM | –
16 | CC(c1ccc(OC(F)(F)F)cc1F)N1C[C@H](C)N(c2nc(=O)n(C)c3ccc(C#N)nc23)C[C@H]1C (single isomer, unassigned) [Example 142] | – | 230 nM | 52 nM | 100 nM | – | 3650 nM

Continued, in another order:

Row | IC50 (human DGKα [1]) | IC50 (human DGKζ) | IC50 (human DGKα [3]) | SMILES | IC50 (whole blood (pERK)) | EC50 [2] | EC50 ([2]; Homo sapiens)
17 | 26 nM | 55 nM | 310 nM | CC[C@@H]1CN(c2nc(=O)n(C)c3ccc(C#N)nc23)[C@@H](C)CN1C(c1ccc(F)cc1)c1ccc(C(F)(F)F)nc1 (single isomer, unassigned) [Example 98] | 140 nM | 88 nM | –
18 | 4 nM | 120 nM | 130 nM | CC[C@@H]1CN(c2nc(=O)n(C)c3ccc(C#N)nc23)[C@@H](C)CN1C(c1ccc(OC(F)(F)F)cc1)c1cc(C2CC2)on1 (stereo partly drawn) [Example 99, 4-((2S,5R)-4-((5-cyclopropylisoxazol-3-yl)(4-(trifluoromethoxy)phenyl)methyl)-5-ethyl-2-methylpiperazin-1-yl)-1-methyl-2-oxo-1,2-dihydropyrido[3,2-d]pyrimidine-6-carbonitrile] | 140 nM | – | 120 nM
19 | 60 nM | 110 nM | 55 nM | CCC(c1ccc(C(F)(F)F)cc1)N1C[C@H](C)N(c2nc(=O)n(C)c3ccc(C#N)nc23)C[C@H]1CC (single isomer, unassigned) [Example 89] | 260 nM | – | 35 nM
20 | 11 nM | 22 nM | 43 nM | CC[C@@H]1CN(c2nc(=O)n(C)c3ccc(C#N)nc23)[C@@H](C)CN1C(c1ccc(F)cc1)c1nc(C2CC2)no1 (stereo partly drawn) [Example 112, 4-((2S,5R)-4-((3-cyclopropyl-1,2,4-oxadiazol-5-yl)(4-fluorophenyl)methyl)-5-ethyl-2-methylpiperazin-1-yl)-1-methyl-2-oxo-1,2-dihydropyrido[3,2-d]pyrimidine-6-carbonitrile] | 15 nM | 11 nM | –
21 | – | 33 nM | 39 nM | CC[C@@H]1CN(c2nc(=O)n(C)c3ccc(C#N)nc23)[C@@H](C)CN1C(c1ccc(F)cc1)c1ccc(C2CC2)cn1 (single isomer, unassigned) [Example 75] | 100 nM | 30 nM | –
22 | 210 nM | 45 nM | 630 nM | CC[C@@H]1CN(c2nc(=O)n(C)c3ccc(C#N)nc23)[C@@H](C)CN1C(c1ccc(F)cc1)c1ccc(C(F)(F)F)nc1 (single isomer, unassigned) [Example 97] | 380 nM | – | 99 nM
23 | 16 nM | 86 nM | 200 nM | CC[C@@H]1CN(c2nc(=O)n(C)c3ccc(C#N)nc23)[C@@H](C)CN1C(c1ccc(OC(F)(F)F)cc1)c1ccccn1 (single isomer, unassigned) [Example 94] | 220 nM | 43 nM | –
24 | 66 nM | 91 nM | 210 nM | CCC(c1ccc(OC(F)(F)F)cc1F)N1C[C@H](C)N(c2nc(=O)n(C)c3ccc(C#N)nc23)C[C@H]1CC (single isomer, unassigned) [Example 85] | 66 nM | 22 nM | –
25 | – | 11 nM | 37 nM | CC[C@@H]1CN(c2nc(=O)n(C)c3ccc(C#N)nc23)[C@@H](C)CN1C(C)c1ccc(OC)cc1 (single isomer, unassigned) [Example 56] | 200 nM | 39 nM | –
26 | – | 120 nM | 30 nM | CC[C@H]1CN(C(c2ccc(F)cc2)c2ccon2)[C@H](CC)CN1c1nc(=O)n(C)c2ccc(C#N)nc12 (single isomer, unassigned) [Example 35] | 150 nM | 120 nM | –
27 | – | 27 nM | 37 nM | CC[C@@H]1CN(c2nc(=O)n(C)c3ccc(C#N)nc23)[C@@H](C)CN1C(c1ccc(F)cc1)c1nc(C2CC2)cs1 (single isomer, unassigned) [Example 51] | 9 nM | – | 6 nM
28 | – | 2560 nM | 560 nM | C[C@@H]1CN(c2nc(=O)n(C)c3ccc(C#N)nc23)[C@@H](C)CN1C(c1ccc(F)cc1)c1ccc(F)cc1 [Example 124, 4-((2S,5R)-4-(bis(4-fluorophenyl)methyl)-2,5-dimethylpiperazin-1-yl)-1-methyl-2-oxo-1,2-dihydropyrido[3,2-d]pyrimidine-6-carbonitrile] | 270 nM | – | 500 nM
29 | – | 2470 nM | 160 nM | CC[C@H]1CN(C(c2ccc(F)cc2)c2ccc(C(F)(F)F)cn2)[C@H](C)CN1c1nc(=O)n(C)c2ccc(C#N)nc12 (stereo partly drawn) [Example 115, 4-((2S,5R)-2-ethyl-4-((4-fluorophenyl)(5-(trifluoromethyl)pyridin-2-yl)methyl)-5-methylpiperazin-1-yl)-1-methyl-2-oxo-1,2-dihydropyrido[3,2-d]pyrimidine-6-carbonitrile] | 520 nM | 230 nM | –
